From ChEMBL document CHEMBL1201862, “PubChem BioAssay data set” (2004)
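A five-concentration, 48-hour dose response in 96-well plates underlies each endpoint, interpolated linearly between surrounding concentrations. Here, GI50 denotes the concentration required for 50% inhibition of growth.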 The source made the active and inactive calls. Cut-off read from the data, not from the text of the source: active = GI50 up to about 1.1 µM and inactive = higher.

Assays:
Assay in all cases: DTP human tumour cell line panel, 48 h
SF-539 = test system: SF-539
K562 = test system: K562
LOX IMVI = test system: LOX IMVI
NCI/ADR-RES = test system: NCI/ADR-RES
HT-29 = test system: HT-29
EKVX = test system: EKVX
HCC 2998 = test system: HCC 2998
786-0 = test system: 786-0
SW-620 = test system: SW-620
A549 = test system: A549
HCT-116 = test system: HCT-116
M14 = test system: M14
NCI-H522 = test system: NCI-H522
NCI-H23 = test system: NCI-H23
HOP-92 = test system: HOP-92
UACC-257 = test system: UACC-257
HCT-15 = test system: HCT-15
T47D = test system: T47D
HL-60 = test system: HL-60
SF-268 = test system: SF-268

| SMILES | GI50 (SF-539) | GI50 (K562) | GI50 (LOX IMVI) | GI50 (NCI/ADR-RES) | GI50 (HT-29) | GI50 (EKVX) | GI50 (HCC 2998) | GI50 (786-0) | GI50 (SW-620) | GI50 (A549) | GI50 (HCT-116) | GI50 (M14) | GI50 (NCI-H522) | GI50 (NCI-H23) | GI50 (HOP-92) | GI50 (UACC-257) | GI50 (HCT-15) [µM] | GI50 (T47D) | GI50 (HL-60) | GI50 (SF-268) |
| --- | --- | --- | --- | --- | --- | --- | --- | --- | --- | --- | --- | --- | --- | --- | --- | --- | --- | --- | --- | --- |
| FC(F)(F)c1cccc(-c2nc3nc(Cl)c(Cl)nc3[nH]2)c1 | 3.15 µM (inactive) | 1.74 µM (inactive) | 2.92 µM (inactive) | 2.53 µM (inactive) | 2.18 µM (inactive) | 2.96 µM (inactive) | 3.11 µM (inactive) | 3.77 µM (inactive) | 3.72 µM (inactive) | 2 µM (inactive) | 2.09 µM (inactive) | 3.42 µM (inactive) | 0.764 µM (active) | 1.47 µM (inactive) | 0.889 µM (active) | 2.22 µM (inactive) | 2.64 | 1.29 µM (inactive) | 1.69 µM (inactive) | 3.03 µM (inactive) |
| CCOC(=O)c1nc2ccccc2nc1Nc1ccc(OC)cc1 | 22 µM (inactive) | > 100 µM (inactive) | > 100 µM (inactive) | 34.8 µM (inactive) | > 100 µM (inactive) | 47.8 µM (inactive) | > 100 µM (inactive) | 27.6 µM (inactive) | > 100 µM (inactive) | 51.2 µM (inactive) | 42.3 µM (inactive) | > 100 µM (inactive) | 23.8 µM (inactive) | 54.2 µM (inactive) | 22.5 µM (inactive) | 49.5 µM (inactive) | > 100 | 43.5 µM (inactive) | > 100 µM (inactive) | 51.6 µM (inactive) |
| CCC[C@@H](O)C[C@@H]1CCC[C@H](C[C@@H](O)CC)N1C | > 100 µM (inactive) | > 100 µM (inactive) | 88.1 µM (inactive) | > 100 µM (inactive) | > 100 µM (inactive) | 29.7 µM (inactive) | > 100 µM (inactive) | > 100 µM (inactive) | > 100 µM (inactive) | > 100 µM (inactive) | > 100 µM (inactive) | > 100 µM (inactive) | 11.7 µM (inactive) | > 100 µM (inactive) | < 0.01 µM (active) | > 100 µM (inactive) | > 100 | > 100 µM (inactive) | > 100 µM (inactive) | 17.9 µM (inactive) |
| COC(=O)c1cc(C)ccc1C1CN=NC12Cc1c(C)cc(C)cc1C2=O (stereo not given) | 17.1 µM (inactive) | 18.4 µM (inactive) | 15.1 µM (inactive) | 17.7 µM (inactive) | 18.3 µM (inactive) | 33.5 µM (inactive) | 26.5 µM (inactive) | 25.7 µM (inactive) | 33.2 µM (inactive) | 26.7 µM (inactive) | 14.7 µM (inactive) | 17 µM (inactive) | 13.6 µM (inactive) | 19.1 µM (inactive) | 13.8 µM (inactive) | 23.9 µM (inactive) | 22.5 | 31 µM (inactive) | 6.1 µM (inactive) | 20.8 µM (inactive) |
| CCOC(=O)CCC(NC(=O)c1ccc(CNc2nc3cc(N)cc(N)c3nc2-c2ccccc2)cc1)C(=O)OCC (stereo not given) | > 100 µM (inactive) | 15.3 µM (inactive) | 99.3 µM (inactive) | > 100 µM (inactive) | > 100 µM (inactive) | > 100 µM (inactive) | > 100 µM (inactive) | > 100 µM (inactive) | > 100 µM (inactive) | > 100 µM (inactive) | > 95.9 µM (inactive) | 28.4 µM (inactive) | 28.4 µM (inactive) | > 67.6 µM (inactive) | 39.9 µM (inactive) | 19 µM (inactive) | > 69.5 | 20.7 µM (inactive) | 10.7 µM (inactive) | > 100 µM (inactive) |
